Data set [1] has as its system Jurkat cell (human T-lymphocyte cell). As to the kind of experiment: MTT assay, Jurkat cell. It is filed as cell-based. As to the method:
(§1) In this example, the cytotoxic effect of Pro-IP6 on four types of blood cancer cell lines and a cell derived from a healthy person was examined by MTT assay. […] It is possible to check viability of cultured cells by MTT assay. Cancer cell lines (1.74×10^4 cells/well, culture fluid: 200 μL) • MT-2 cell (HTLV transformed human T cell leukemia cell) • […] cell (human T-lymphoblastoid cell) • Jurkat cell (human T-lymphocyte cell) • K562 cell (chronic myelogenous leukemia cell) Each of the above-described types of cells was seeded in a 96-well plate, and was cultured for 8 hours for each of the various cancer cell lines and for 16 hours for PMBC. Thereafter, DMSO (1%, Fujifilm Wako Pure Chemical Corporation), an aqueous solution (1%) of IP6 (final concentration: 1 μM or 10 μM, Sigma Aldrich), or a DMSO solution (1%) of Pro-IP6 (final concentration: 1 μM or 10 μM) was added thereto, followed by culturing for 8 hours or 24 hours. An MTT reagent (Dojindo Laboratories, 1.1 mg/mL) was added in an amount of 50 μL per well, and the resultant was cultured for another 4 hours. The thus precipitated crystal was collected, a supernatant was removed, and 100 μL of DMSO was added thereto to completely dissolve. The resultant solution was measured for an absorbance (550 nm).
On the technique in general: Tetrazolium assays rely on reduction of a dye to a coloured formazan, in cell work by metabolically active cells.

Data set [2] has as its system AMPK. As to the kind of experiment: Western blotting (2), anti-pAMPK antibody, Jurkat cell. It is filed as cell-based, human. Particulars: 1 μM or 10 μM, 8 hours or 24 hours. As to the method: In this example, in the same manner as in Example 4, the action mechanism for killing cells by Pro-IP6 was checked by Wester blotting using a Jurkat cell and various antibodies. Jurkat cells (1×10^5 cells/well, culture fluid: 500 μL) were seeded in a 24-well plate to be cultured overnight. Thereafter, DMSO (1%, Fujifilm Wako Pure Chemical Corporation), an aqueous solution (1%) of IP6 (final concentration 10 μM, Sigma Aldrich), or a DMSO solution (1%) of Pro-IP6 (final concentration: 1 μM or 10 μM) was added thereto, followed by culturing for 8 hours or 24 hours. A supernatant was removed, the resultant was washed with 1× PBS (−) once, Laemmli sample buffer was added thereto, and the resultant was boiled at 100° C. for […] to dissolve the cells. The resultant was subjected to electrophoresis and then transferred onto a membrane (Millipore). […] Detection was performed using ImmunoStar LD (Fujfilm Wako Pure Chemical Corporation).
A general note: Immunoblotting shows a protein as a band on a membrane.

For data set [3], the system named is M8166 cell (human T-lymphoblastoid cell). As to the kind of experiment: MTT assay, M8166 cell. The data set is classed as cell-based. As to the method: as §1
In data set [4] the test system is Jurkat cell. Description: Cell viability test (flowcytometry, Annexin V-FITC / 7-AAD). As to conditions: 10 μM, 24 hours. The data set is classed as cell-based, human. As to the method:
In this example, a cell viability test (flowcytometry) was performed using a Jurkat cell, that is, a human T cell-derived leukemia cell. Jurkat cells (1×10^5 cells/well, culture fluid: 500 μL) were seeded in a 24-well plate (Iwaki) to be cultured overnight. Thereafter, DMSO (1%, Fujifilm Wako Pure Chemical Corporation), an aqueous solution (1%) of IP6 (final concentration: 10 μM, Sigma Aldrich), or a DMSO solution (1%) of Pro-IP6 (myo-inositol hexaphosphate dodecakis(butyryloxymethyl) ester (4) synthesized in Example 1) (final concentration: 10 μM) was added thereto, and the resultant was cultured for 24 hours. A supernatant was removed, the resultant was washed with 1× PBS (−) once, 100 μL of 5× binding solution (PromoCell) was added thereto, and Annexin V-FITC (PromoCell) and 7-AAD (Becton, Dickinson and Company) were added thereto to perform a reaction for 15 minutes. Thereafter, measurement was performed using FACS Calibur (Becton, Dickinson and Company), and analysis was performed using FlowJo (Becton, Dickinson and Company).

Data set [5] relates to PARP-1. As to the kind of experiment: Western blotting (1), anti-PARP-1 antibody, Jurkat cell. It is filed as cell-based, human. As to conditions: 10 μM. As to the method:
(§2) In this example, the action mechanism for killing cells by Pro-IP6 was studied by Wester blotting using a Jurkat cell and various antibodies. Jurkat cells (1×10^5 cells/well, culture fluid: 500 μL) were seeded in a 24-well plate to be cultured overnight. Thereafter, DMSO (1%, Fujifilm Wako Pure Chemical Corporation), an aqueous solution (1%) of IP6 (final concentration: 10 μM, Sigma Aldrich), or a DMSO solution (1%) of Pro-IP6 (final concentration: 1 μM or 10 μM) was added thereto, followed by culturing for 8 hours or 24 hours. A supernatant was removed, the resultant was washed with 1× PBS (−) once, Laemmli sample buffer was added thereto, and the resultant was boiled at 100° C. for 1 hour to dissolve the cells. […] Detection was performed using ImmunoStar LD (Fujifilm Wako Pure Chemical Corporation).

The subject of data set [6] is Akt. As to the kind of experiment: Western blotting (1), anti-phospho-Akt (Thr308) antibody, Jurkat cell. The data set is classed as cell-based, human. As to conditions: 8 hours or 24 hours. Here is the method:
as §2

As for `CCCC(=O)OCOP(=O)(OCOC(=O)CCC)O[C@H]1[C@H](OP(=O)(OCOC(=O)CCC)OCOC(=O)CCC)[C@@H](OP(=O)(OCOC(=O)CCC)OCOC(=O)CCC)[C@H](OP(=O)(OCOC(=O)CCC)OCOC(=O)CCC)[C@@H](OP(=O)(OCOC(=O)CCC)OCOC(=O)CCC)[C@H]1OP(=O)(OCOC(=O)CCC)OCOC(=O)CCC` [Pro-IP6, myo-inositol hexaphosphate dodecakis(butyryloxymethyl) ester], the “cytotoxic effect at 10 μM” value in data set [1] and in data set [3] was “most of the cells were killed” each time. Besides, the “lowering of relative cell viability” value was no less than 25% in data set [1] (Jurkat cell, 1 μM or 10 μM, 8 hours or 24 hours) and no less than 25% in data set [3] (M8166 cell, 1 μM or 10 μM, 8 hours or 24 hours). Also, the “activation of AMPK (pAMPK)” value in data set [2] is recorded as “activates AMPK”. The “induction of apoptosis (Annexin V-FITC / 7-AAD flow cytometry)” value in data set [4] was “induction of apoptosis in a Jurkat cell, that is, human T cell-derived leukemia cell, was observed”. Further, the “cleavage of PARP-1 (induction of apoptosis)” value in data set [5] is “cleavage of PARP-1 and Caspase-3 was observed”. The “phosphorylation of Akt” value in data set [6] (1 μM) and in data set [6] (10 μM) was “inhibits phosphorylation of Akt” throughout.

The values are drawn from patent publication US20210177722A1, “Phytic Acid Ester Derivative” (NATIONAL UNIVERSITY CORPORATION KUMAMOTO UNIVERSITY, priority 2018, published 2021).
